In US20210087156A1, “PHARMACEUTICALLY ACCEPTABLE SALTS OF BENZODICYCLOALKANE DERIVATIVE, P[…] THEREOF, AND APPLICATION THEREOF” (priority 2018, published 2021):

Key:
[1] = In vivo test of rats: pharmacokinetics after oral administration; settings: male, SD, rat, 10 mg/kg, oral administration of dezocine in rats, dose of dezocine 10mpk
Experimental: LC-MS/MS method was applied for the determination of the drug concentration in plasma at different times after the example compounds were orally administered to rats in order to study the pharmacokinetic behavior of the compounds of the invention in vivo in rats and evaluate their pharmacokinetic characteristics.
Test Animals: healthy Adult male SD rats (weight 200-300 g, 3, fasted), provided by SLAC company;
Administration and Dosage: (16 mg/kg or 24 mg/kg, 10 mL/kg, 5% 1,2-propanediol (1,2-Propanediol, Shanghai Titan Technology Co., Ltd. Lot No.: P1057349)) was administered via oral gavage to SD rats;
Blood collection: firstly, the animals which were selected to meet the test requirements prior to administration were weighed. The rats were bound before the blood collection, blood from each administered rat was taken at predetermined time points, (blood was collected at 0.083, 0.25, 0.5, 1, 2, 4, 6, 8 h before and after administration respectively, 9 time points in total), about 150 μl of blood was collected via orbital vein. Blood was transferred to a 1.5 ml tube to which K2EDTA was added previously. The collected blood sample was put on ice, and centrifuged to obtain plasma sample (2000 g, 5 min under 4° C.) within 15 minutes. All the plasma samples were stored at approximately −70° C. until analysis.
LC/MS/MS method was applied to determine the concentrations of the drug. […]

[2] = background statement, cited from earlier work
[3] = target: δ opioid receptors (Homo sapiens, UniProt P41143); settings: background statement; cited from earlier work
δ opioid receptors, sequence (P41143 whole entry): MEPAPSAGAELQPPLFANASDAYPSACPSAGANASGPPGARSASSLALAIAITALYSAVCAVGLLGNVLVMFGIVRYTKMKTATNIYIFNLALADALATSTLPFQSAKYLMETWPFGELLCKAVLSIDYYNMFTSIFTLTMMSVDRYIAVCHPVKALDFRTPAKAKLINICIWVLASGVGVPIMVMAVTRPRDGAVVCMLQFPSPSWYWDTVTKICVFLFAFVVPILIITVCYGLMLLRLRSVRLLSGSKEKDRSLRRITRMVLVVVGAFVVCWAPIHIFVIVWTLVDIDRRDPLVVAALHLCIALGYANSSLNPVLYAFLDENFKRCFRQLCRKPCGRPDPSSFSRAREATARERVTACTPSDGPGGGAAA

C[C@@]12CCCCC[C@@H](Cc3ccc(O)cc31)[C@@H]2N [dezocine]
AUC [1]: 58.6 ng·h/mL | oral bioavailability [2]: ≤ 5% | time after which the blood drug concentration falls below the effective level ([2]; injection): 2 to 3 h | activity on δ opioid receptors (in words) [3]: very weak
